Results reported in patent US20020094524A1, “Compositions and methods for inhibiting HIV infection” (priority 2000, published 2002).

Assays:
HIV Bal strain = assay: HIV RT activity in HIV Bal strain-infected MDM; type: cell-based, HIV-1; details: for HIV RT activity increased: MDM, 12 days after infection (FIG. 1A)
Description: The cells were also incubated with SP and/or anti-SP antibody. In this case, SP was incubated with (1:1000 dilution in 10% FCS DMEM) or without anti-SP antibody at room temperature for 10 min and then the mixture was added to the cell cultures for 2 h. When the cells were treated with the combination of CP-96,345 and SP, or CP-96,345, SP and anti-SP antibody, CP-96,345 was incubated with the cell culture for 10 min and then SP was added to the MDM or CP-96,345, SP and anti-SP (1:1000 in 10% FCS DMEM) were incubated for 10 min at room temperature and the mixture was incubated with the MDM for 2 h before infection with HIV. Untreated MDM served as controls. The cells were treated prior to, during, and throughout the infection.
HIV Infection: After 2 h incubation with or without the reagents described above, the cells were infected with equal amounts of cell-free HIV based on p24 antigen content (20 ng/10^6 cells) overnight, and then washed to remove unbound virus. Fresh media containing SP and/or CP-96,345 or anti-SP antibody were added to the MDM as described above. The culture media and the reagents were replaced twice weekly. The culture supernatants were harvested for HIV reverse transcriptase (RT) activity determinations. After HIV infection, the MDM were incubated for 8 to 12 days. At the termination of the experiments, cellular RNA was extracted for assessment of HIV gag gene expression using RT-PCR or real time RT-PCR assays.
The HIV RT activity assay was carried out based on the technique of Willey et al. (30) with modification (22).

CCR5 = assay: Macrophage receptor expression by flow cytometry; type: cell-based, human; details: overnight/24 h; among CD4, CCR5, CXCR4 and CD14 only CCR5 changed (FIG. 8)
Description: The cells were removed from the culture plate and then resuspended in 100 μl of phosphate-buffered saline (PBS). After incubation with 20 μl of either anti-CCR5-FITC or anti-CXCR4-FITC or anti-CD4-FITC or anti-CD14-FITC for 45 min at 4° C., the cells were washed twice with PBS and fixed with 1% paraformaldehyde in PBS. Fluorescein-conjugated control antibodies were isotype-matched IgG. Fluorescence was analyzed on an EPICS-Elite flow cytometer (Beckman-Coulter Electronics, Hialeah, Fla.).

HIV LTR promoter = assay: HIV LTR-driven CAT activity assay in U38 cells; type: cell-based
Text: ACH-2 and U38 cell lines (25, 26) were obtained from the NIH AIDS Reagent Program. DNA extracted from ACH-2 cells was used as a positive standard for HIV DNA PCR as previously reported (27). The U38 cell line contains stably integrated, silent copies of the HIV LTR (long terminal repeat) promoter linked to a CAT (chloramphenicol acetyltransferase) gene and was used to study the effect of SP and/or CP-96,345 and R-113281 on the activation of HIV LTR promoter.
Chloramphenicol acetyltransferase (CAT) activity assay:U38 cells (2×10^6 cells) were incubated with different concentrations of SP and/or CP-96,345 or R-113281 for 48 h. Untreated U38 cells were used as a background control. Cellular proteins were extracted using 1× Reporter Lysis Bufffer (Promega Corp., Madison, Wis.). The lysates were incubated with a mixture containing 0.15 μCi of ^14C-labeled chloramphenicol (DuPont Inc., Boston, Mass.) and 200 μg/ml of n-Butyryl CoA (Promega Corp., Madison, Wis.) in a total volume of 125 μl at 37° C. for 3 h. The acetylated forms of chloramphenicol were extracted with xylene (Aldrich Chemical Company, Milwaukee, Wis.). CAT activity of each sample was quantified using a liquid-scintillation counter (Packard Instrument Company, Downers Grove, Ill.). The results were expressed as the ratio of CAT activity (CPM) of the SP and/or CP-96,345-treated or R-113281-treated U38 to that of the background control.

| Compound | viral replication by HIV RT activity vs HIV infection control (HIV Bal strain; 10^−7M, 8 days after infection (FIG. 4)) | CCR5 receptor expression on MDM (percentage positive cells) (CCR5) | effect of SP alone on HIV replication (RT activity and gag mRNA) (HIV Bal strain; SP 10^−6M, 12 days after infection (FIG. 5)) | HIV RT activity increased (HIV Bal strain; SP 10^−6M) [%] | HIV RT activity increased (HIV Bal strain; SP 10^−8M) [%] | HIV RT activity increased (HIV Bal strain; SP 10^−10M) [%] | HIV LTR-driven CAT activity vs untreated baseline (HIV LTR promoter; SP 10^−5M, 48 hours (FIG. 16)) | HIV LTR-driven CAT activity vs untreated control cells (HIV LTR promoter; SP 10^−10 to 10^−6M, 48 h, P<0.05 (FIG. 7)) |
| --- | --- | --- | --- | --- | --- | --- | --- | --- |
| COc1ccccc1CN[C@H]1C2CCN(CC2)[C@H]1C(c1ccccc1)c1ccccc1 [CP-96,344] | did not have the effect | did not affect |  |  |  |  |  |  |
| Substance P [SP] |  |  | enhanced HIV replication | 58 | 40 | 14 | significantly increases | significantly increased |
